Assay results from US9328115B2, “Process for preparing meropenem trihydrate” (DAEWOONG PHARMACEUTICAL CO., LTD., priority 2012, dated 2016).

Experiment: Water-solubility measurement at 26° C.
Assay type: physicochemical
Details: in water, measured at 26° C.
Description: The water-solubilities of the methanol solvate of meropenem obtained in the above as well as meropenem trihydrate were measured at 26° C.

| water-solubility [mg/mL] | Structure (SMILES) |
| --- | --- |
| 16.4 | C[C@@H](O)[C@H]1C(=O)N2C(C(=O)O)=C(S[C@@H]3CN[C@H](C(=O)N(C)C)C3)[C@H](C)[C@H]12 [meropenem trihydrate, (4R,5S,6S)-3-((3S,5S)-5-(dimethylcarbamoyl)pyrrolidin-3-ylthio)-6-((R)-1-hydroxyethyl)-4-methyl-7-oxo-1-azabicyclo[3.2.0]hept-2-ene-2-carboxylic acid] |
| 57.6 | C[C@@H](O)[C@H]1C(=O)N2C(C(=O)O)=C(S[C@@H]3CN[C@H](C(=O)N(C)C)C3)[C@H](C)[C@H]12 [methanol solvate of meropenem, (4R,5S,6S)-3-((3S,5S)-5-(dimethylcarbamoyl)pyrrolidin-3-ylthio)-6-((R)-1-hydroxyethyl)-4-methyl-7-oxo-1-azabicyclo[3.2.0]hept-2-ene-2-carboxylic acid] |
